The target of experiment [1] is T1, human JAK1 (aa 850-1154) (Homo sapiens, UniProt P23458).
T1 construct: human JAK1 (aa 850-1154); GST (N); purchased Carna Bioscences; host or cells: baculovirus expression system
Kind of experiment: In vitro JAK kinase assay (TR-FRET), JAK1. The note with it: ATP 3 µM, poly (GT)-Biotin 60 nM, 30 minutes at room temperature. In kind it is biochemical. The protocol: (§1) In vitro JAK kinase Assays
(§2) Compounds were screened for their ability to inhibit JAK1, JAK2 and JAK3 using the assays as indicated below.
(§3) The catalytic domains of human JAK1 (aa 850-1154), JAK2 (aa 826-1132), JAK3 (aa 795-1124) and Tyk2 (aa 871-1187) were expressed as N-terminal GST-fusion proteins using a baculovirus expression system and were purchased from Carna Bioscences. The enzymatic activity was assayed using as substrate a biotinylated peptide, poly (GT)-Biotin (CisBio). The peptide concentration in the reactions was 60 nM for JAK1, 20 nM for JAK2, 140 nM for JAK3 and 50 nM for Tyk2. The degree of phosphorylation was detected by TR-FRET (time-resolved fluorescence energy transfer).
(§4) IC50s of compounds were measured for each kinase in a reaction mixture containing the enzyme, ATP and the peptide in 8 mM MOPS (pH 7.0), 10 mM MgCl2, 0.05% β-mercaptoethanol, 0.45 mg/mL BSA. The ATP concentration in the reactions was 3 µM for JAK1, 0.2 µM for JAK2, 0.6 µM for JAK3 and 1.8 µM for Tyk2. The enzymatic reactions took place for 30 minutes at room temperature. Then, the reactions were stopped with 20 µL of quench detection buffer (50 mM HEPES, 0.5 M KF, EDTA 0.25 M, 0.1% (w/v) BSA, pH 7.5) containing 0.115 µg/mL of anti-phosphoTyr (PT66)-Cryptate (CisBio) and a variable concentration of SA-XL665 (CisBio) to keep the SA-B ratio constant. Incubate for 3 h and read on Victor 2V spectrofluorometer (PerkinElmer) set to read fluorescence resonance energy transfer.
In general terms: In TR-FRET formats the signal depends on donor and acceptor labels being close together.

Experiment [2] deals with T2, JAK2 (aa 826-1132) (Homo sapiens, UniProt O60674).
T2 construct: JAK2 (aa 826-1132); GST (N); purchased Carna Bioscences; host or cells: baculovirus expression system
T2 sequence (O60674 826-1132): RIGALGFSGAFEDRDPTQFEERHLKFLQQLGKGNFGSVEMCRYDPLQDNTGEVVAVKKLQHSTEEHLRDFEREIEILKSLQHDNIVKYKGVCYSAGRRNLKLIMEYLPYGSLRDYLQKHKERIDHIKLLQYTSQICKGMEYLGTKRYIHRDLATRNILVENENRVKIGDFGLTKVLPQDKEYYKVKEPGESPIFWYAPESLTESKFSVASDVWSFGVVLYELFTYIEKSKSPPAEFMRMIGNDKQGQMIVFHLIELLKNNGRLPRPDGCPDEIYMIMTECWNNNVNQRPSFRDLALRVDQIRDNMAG
Description: In vitro JAK kinase assay (TR-FRET), JAK2. Format: biochemical. The note with it: ATP 0.2 µM, poly (GT)-Biotin 20 nM, 30 minutes at room temperature. The protocol:
as §1, §2, §3, §4

Experiment [3] concerns the target T3, JAK3 (aa 795-1124) (Homo sapiens, UniProt P52333).
T3 construct: JAK3 (aa 795-1124); GST (N); purchased Carna Bioscences; host or cells: baculovirus expression system
Kind of experiment: In vitro JAK kinase assay (TR-FRET), JAK3. In kind it is biochemical. The conditions noted are these: ATP 0.6 µM, poly (GT)-Biotin 140 nM, 30 minutes at room temperature. The protocol:
as §1, §2, §3, §4

Experiment [4] concerns the target T4, Recombinant human full-length Syk (Homo sapiens, UniProt P43405).
T4 construct: Recombinant human full-length Syk was supplied by Millipore; purchased Millipore
Description: Syk enzyme assay - radioactive filtration kinase assay. In kind it is biochemical. The procedure: Syk Enzyme assay- Radioactive filtration kinase assay
Recombinant human full-length Syk was supplied by Millipore. The activity of Syk kinase was assessed using a radioactive filtration kinase assay. […] The reaction was initiated by the addition of 14.5 µl of 0.36 µCi [γ-^33P] ATP (10 mCi/ml, PerkinElmer). This was prepared in a half-area NBS plate (Corning) and allowed to stand at room temperature for 40 min. 15 µl of reaction mixture was transferred to a filter plate (Millipore) previously pre-wetted with a solution of 75 mM phosphoric acid. The reaction was terminated with the addition of 200 µl phosphoric acid. The filter plate was washed three times under vacuum on a vacuum manifold (Millipore cat# MSVMHTS00) at 8" Hg vacuum level with 200 µl phosphoric acid per wash. 30 µl Optiphase™ Supermix (PerkinElmer) was added to each test well and allowed to incubate for at least 1 h before counting. Radioactivity counting was performed in a Wallac MicroBeta®, and the tyrosine phosphorylation activity by Syk was calculated.

Experiment [5] concerns LAD2 cells. Description: LAD2 cells assay (degranulation, β-hexosaminidase release). Format: cell-based. The conditions noted are these: Homo sapiens, 0.5 h; IgE-sensitized LAD2 cells, 30 min with compound, activated with 125 ng/ml streptavidin; released β-hexosaminidase; read-out: LAD2IC50. The source says:
LAD2 is a human mast cell line depending on stem cell factor for its survival, maturation and differentiation. This mast cell line was established by the NIH from bone marrow aspirates from a patient with mast cell sarcoma. LAD2 cells resemble CD34+ - derived human mast cells as they have granules containing tryptase, histamine and β-hexosaminidase. They also express c-kit and FcεRI (Kirshenbaum, et al., Leukemia Research 27: 677-682, 2003).
Sensitization of LAD2 cells
Cells were sensitized (0.2x10^6 cells/ml) in its normal growth factor (Complete StemPro-34 SFM, Gibco 10639-011 containing StemPro-34 nutrient supplement (1/40); glutamine (2 mM) and supplemented with 100 ng/ml SCF) by adding 100 ng/ml of biotin-labeled IgE (USBiological) overnight (16-18 h, 37º, 5% CO2) in a humidified atmosphere (90%).
Compounds were prepared from a 10^-2M stock in 100% DMSO to give seven successive 1/3 dilutions in DMSO. From each concentration, 2 further 1/10 dilutions were prepared in release buffer (137 mM NaCl, 2.70 mM KCI, 0.4 mM NaH2PO4, 5.6 mM (D)-glucose, 1.8 mM CaCl2, 1.3 mM MgSO4, 0.025% BSA). Finally, 5 µl from each diluted concentration were transferred into the assay plate (flat 96-well Nunc). The final compound concentrations tested ranged from 1x10^-5M to […] with a final proportion of DMSO in the assay of 0.1 %. Control wells were treated with 0.1 % DMSO.
Sensitized LAD2 cells were centrifuged (300 g, 3 min, R.T.) and washed 2 times with release buffer. Cells were resuspended in release buffer and adjusted to a density of 0.2x10^6/ml. 45 µl of the adjusted cells were transfered to the assay plate (∼10,000cells/well) containg 5 µl of the final compound concentrations. LAD2 cells were incubated with the compound for 30 min (37 °C, 5% CO2 90% of humidity) and then activated with 125 ng/ml of streptavidin (Pierce 21125) for 30 min (37 °C, 5% CO2, 90% of humidity). After the activation, cells were centrifuged at 1200 g, 10 min, 12 °C and supernatats were removed and transfered to another well for determination of released β-hexosaminidase. Empty wells were filled with 50 µl of release buffer for determination of intracellular β-hexosaminidase. Cells were lysed with 2 cycles of freeze-thaw.
Cells were incubated for 90 minutes, 37 °C with 1 mM β-hexosaminidase substrate (p-nitrophenyl N-acetyl-D-glucosamide, in citric buffer, pH 4.5). Reaction was stopped with 0.4 M glycine solution (pH 10.0) and the plate is read immediately at 405 nm.

Setting [6] is: Syk 1nM final, poly-GT 100 µg/ml, [γ-33P] ATP, 40 min at room temperature, read-out: Syk IC50.

Where two headings read alike, the source gives them in different places.

T3 sequence (P52333 795-1124): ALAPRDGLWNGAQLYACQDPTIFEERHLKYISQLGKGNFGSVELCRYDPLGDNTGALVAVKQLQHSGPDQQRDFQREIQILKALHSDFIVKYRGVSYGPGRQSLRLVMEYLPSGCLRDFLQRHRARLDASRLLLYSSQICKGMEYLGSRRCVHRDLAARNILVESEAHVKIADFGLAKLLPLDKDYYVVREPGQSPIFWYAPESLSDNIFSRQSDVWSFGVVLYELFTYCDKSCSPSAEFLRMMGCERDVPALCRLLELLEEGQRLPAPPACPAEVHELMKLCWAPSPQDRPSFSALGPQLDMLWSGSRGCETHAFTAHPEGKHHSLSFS
T1 sequence (P23458 850-1154): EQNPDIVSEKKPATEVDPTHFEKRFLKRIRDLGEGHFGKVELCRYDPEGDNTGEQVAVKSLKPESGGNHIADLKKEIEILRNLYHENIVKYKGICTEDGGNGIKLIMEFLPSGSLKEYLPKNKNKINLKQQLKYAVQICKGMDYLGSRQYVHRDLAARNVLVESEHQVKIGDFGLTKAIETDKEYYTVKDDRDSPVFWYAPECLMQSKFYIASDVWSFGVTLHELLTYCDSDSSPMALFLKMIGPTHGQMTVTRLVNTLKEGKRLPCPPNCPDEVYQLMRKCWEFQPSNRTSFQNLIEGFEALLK

Turning to `COc1cccc(CC(=O)Nc2cc(Nc3cnccn3)nc(-c3ccnc(N4CCNCC4)c3)c2)c1` [Example 78, 2-(3-Methoxyphenyl)-N-[2'-piperazin-1-yl-6-(pyrazin-2-ylamino)-2,4'-bipyridin-4-yl]acetamide], the IC50 was > 1000 nM in experiment [1], < 100 nM in experiment [2] and 100 to 1000 nM in experiment [3].

Turning to `O=C(O)c1ccc(C(=O)Nc2cc(Nc3cnccn3)nc(-c3ccnc(N4CCNCC4)c3)c2)cc1` [Example 79, 4-({[2'-Piperazin-1-yl-6-(pyrazin-2-ylamino)-2,4'-bipyridin-4-yl]amino}carbonyl) benzoic acid], the IC50 in experiment [4] is 8 nM; in experiment [5], 140 nM; in experiment [2] it was < 100 nM; in experiment [3] it was 100 to 1000 nM.

Turning to `O=C(Nc1cc(Nc2cnccn2)nc(-c2ccnc(N3CCNCC3)c2)c1)c1ccc(F)cc1` [Example 80, 4-Fluoro-N-[2'-piperazin-1-yl-6-(pyrazin-2-ylamino)-2,4'-bipyridin-4-yl]benzamide], the IC50 in experiment [4] (setting [6]) is 6 nM; in experiment [5] it was 290 nM; in experiment [1] it was > 1000 nM; in experiment [2] it was < 100 nM; in experiment [3], 100 to 1000 nM.

`O=C(Nc1cc(Nc2cnccn2)nc(-c2ccnc(N3CCNCC3)c2)c1)c1cccnc1` [Example 85, N-[2'-Piperazin-1-yl-6-(pyrazin-2-ylamino)-2,4'-bipyridin-4-yl]nicotinamide]: the IC50 is 6 nM in experiment [4]; 123 nM in experiment [5]; > 1000 nM in experiment [1]; < 100 nM in experiment [2]; 100 to 1000 nM in experiment [3].

`O=C(O)c1cccc(C(=O)Nc2cc(Nc3cnccn3)nc(-c3ccnc(N4CCNCC4)c3)c2)c1` [Example 88, 3-({[2'-Piperazin-1-yl-6-(pyrazin-2-ylamino)-2,4'-bipyridin-4-yl]amino}carbonyl) benzoic acid]: the IC50 in experiment [4] (setting [6]) was 6 nM; in experiment [5], 81 nM; in experiment [2] it was < 100 nM; in experiment [3] it was 100 to 1000 nM.

Take `O=C(O)C[C@H](Cc1ccccc1)C(=O)Nc1cc(Nc2cnccn2)nc(-c2ccnc(N3CCNCC3)c2)c1` [Example 100, (3S)-3-Benzyl-4-oxo-4-{[2'-piperazin-1-yl-6-(pyrazin-2-ylamino)-2,4'-bipyridin-4-yl]amino}butanoic acid]: the IC50 in experiment [1] was > 1000 nM; in experiment [2] it was 100 to 1000 nM; in experiment [3] it was 100 to 1000 nM.

These data come from patent EP2441755A1 (Almirall, S.A., priority 2010, dated 2012).
